Measurements reported in patent US12653862B2, “Anti-senescence compounds and uses thereof” (CLEARA BIOTECH B.V., priority 2020, dated 2026).
“Also recorded” adds a separate entry of the source. Where two headings read alike, the source gives them in different places.

Assays:
[1] = tested on: WT colon and tumor progression (TPO) organoids; assay: Cell viability of WT colon and tumor progression (TPO) organoids; type: cell-based; conditions: increasing concentrations, measured 5 days later
Description: (§1) Organoids were grown at 37° C. and 5% CO2 in a humidified incubator. All organoids were cultured in matrigel (Corning) droplets in advanced DMEM/F12 (Lonza) supplemented with 1% glutamax, 1% Penicillin/Streptomycin, 1% (10 mM) HEPES, 10% Noggin conditioned medium, 2% B-27 (50×; (Thermo/Life Technologies), N-acetylcysteine ((Sigma-Aldrich, 1.25 mM)), A83-01 (Tocris, 500 nM) and SB203580 (Invitrogen/Life Technologies, 3 μM). To perform viability and apoptosis assays, the organoids were passaged through resuspension in ice-cold medium, followed by centrifugation in 15 ml tubes at 4° C. The resulting pellet was trypsinized for 5 minutes at 37° C. to obtain single cells and subsequently washed twice with advanced DMEM/F12 media. These cells were then resuspended in Matrigel and plated in 96-well plates in 5 ul droplets. 100 ul fresh medium was added to the wells 15 minutes later. Peptide and chemotherapy treatment was added to the organoids 2 days after plating.

[2] = Peptide stability in solution; type: physicochemical
Description: Both peptides were dissolved in H2O and kept at room temperature. The peptide concentration was determined for the indicated time points.

IMR90 lung fibroblasts = assay: Caspase-3/7 apoptosis assay in senescent vs healthy control IMR90 cells; type: cell-based, Human; conditions: for apoptosis induction by Caspase-3/7 activation, senescent vs healthy control cells: IMR90, FOXO4-DRI as control
Description: (§2) Human IMR90, WI38 and RPE cells were grown in Dulbecco's Modified Eagle's Medium (DMEM; Lonza) containing 10% FCS and 1% pen/strep at 37° C. with 3.0% 02 and 5.0% CO2. To induce senescence, cells were irradiated with 10Gy ionizing radiation (Gammacell 1000) and were left for a minimum of 10 days to become senescent.
(§3) To perform viability and apoptosis assays, cells were split into 96-well plates and treated with peptides 2 days later. Non-senescent and cancer cells were plated 1500 cells/well, while senescent cells were plated at 8.000 cells/well.
(§4) For a caspase assay, Caspase-Glo 3/7 assay reagent (Promega) was added to the medium 2 days after treatment. The plates were then incubated in aluminium foil at room temperature on a shaker for 1 hour and subsequently measured with a Luminescence Plate Reader.

3D colon organoids = assay: Outgrowth of 3D colon organoids after peptide exposure; type: cell-based
Description: as §1
A Live/dead assay was performed on both larger organoids 3 days after peptide and/or chemotherapy treatment, or on organoids that were treated as single cells and allowed to grow out for 2 weeks before the assay was performed. […] The organoids were then imaged on a Zeiss Cell Observer microscope and the signal was quantified using FIJI.

MCF10 cells = assay: Caspase assay in senescent human breast epithelial MCF10 cells; type: cell-based; conditions: 2 days, vs FOXO4-DRI/CL03001
Description: as §4

full-length TP53 = target: T1, full-length TP53 (Homo sapiens, UniProt P04637); assay: Streptavidin bead pull-down of endogenous TP53 from HEK293T lysates with biotinylated peptide; type: binding; conditions: streptavidin beads, HEK293T cell lysates, vs FOXO4-DRI
T1 construct: endogenous TP53 from lysates ofHEK293T cells; endogenous in cells; host or cells: HEK293T
T1 sequence (P04637 whole entry): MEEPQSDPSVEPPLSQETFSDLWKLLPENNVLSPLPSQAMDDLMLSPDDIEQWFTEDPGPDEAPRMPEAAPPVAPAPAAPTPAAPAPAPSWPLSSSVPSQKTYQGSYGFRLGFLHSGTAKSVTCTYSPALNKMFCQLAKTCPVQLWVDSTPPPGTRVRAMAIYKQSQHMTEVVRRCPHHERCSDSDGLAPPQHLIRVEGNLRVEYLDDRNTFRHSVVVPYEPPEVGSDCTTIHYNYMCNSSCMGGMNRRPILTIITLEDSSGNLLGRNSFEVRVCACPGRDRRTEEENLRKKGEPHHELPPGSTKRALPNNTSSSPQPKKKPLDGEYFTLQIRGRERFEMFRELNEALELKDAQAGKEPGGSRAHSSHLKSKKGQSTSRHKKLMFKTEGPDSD

[3] = tested on: colon cancer 3D organoids; assay: Colon cancer 3D organoids, live/dead assay, with chemotherapy; type: cell-based; conditions: for cell death vs cell cycle arrest: colon cancer 3D organoids
Description: as §1
A Live/dead assay was performed on both larger organoids 3 days after peptide and/or chemotherapy treatment, or on organoids that were treated as single cells and allowed to grow out for 2 weeks before the assay was performed. To perform the assay, Calcein-AM (1:1000) and Propidium Iodide (PI; 1:100) were added to the medium of the organoids to detect living and dead cells respectively. The organoids were then imaged on a Zeiss Cell Observer microscope and the signal was quantified using FIJI.

WI38 cells = assay: Apoptosis in healthy WI38 cells; type: cell-based, Human; conditions: FIG. 9C
Description: as §2, §3, §4

Caspase-3/7 activation = assay: Live imaging of Caspase-3/7 activation over time; type: cell-based
Description: Organoids and IMR90 cells were grown in 96-well cell culture plates and either the 488 IncuCyte Caspase 3/7 Reagent For Apoptosis (Sartorius) or the IncuCyte Caspase 3/7 red apoptosis assay reagent (Essen Bioscience) was added to the wells. Peptides were added directly before the plate was transferred to a Zeiss Cell Observer microscope that contains a Heat and CO2-controlled compartment. Subsequently, live imaging was started where a picture was recorded every 2 hours for 60 hours. Images were processed using Zen imaging software (Zeiss).

[4] = tested on: colon carcinoma 3D organoid cultures; assay: Colon carcinoma 3D organoid cultures; type: cell-based
Description: as §1

GBM8 glioblastoma cells [5] = assay: Loss of LDH (cell death) in GBM8 glioblastoma cells; type: cell-based; conditions: GBM8, vs FOXO4-DRI
Description: (§5) GBM8 cells were cultured in Dulbecco's Modified Eagle's Medium/Nutrient Mixture F-12 (DMEM F-12), containing high glucose, L-Glutamine, no phenol red, supplemented with 1% (10 mM) HEPES, 1% Penicillin/Streptomycin, 2% B-27 (50×), 5 μg/ml Heparin sodium salt from porcine intestinal mucosa Grade I-A, 20 ng/ml recombinant human Fibroblast Growth Factor (rhFGF) and 20 ng/ml recombinant human Epidermal Growth Factor (rhEGF). These cells were cultured in plastic ware coated with Matrigel Matrix (20× diluted in DMEM F-12) at 37° C., 5% CO2 and 3% O2 in a humified incubator.
as §3

TP53-TAD2 = target: T2, TP53-TAD2 (Homo sapiens, UniProt P04637); assay: Fluorescence polarization with FITC-labeled TP53-TAD2; type: binding; conditions: FITC-labeled TP53-TAD2 (250 nM), increasing concentrations of peptides
T2 construct: amino acid 37 to 57 (p53-TAD2)
T2 sequence (P04637 37-57 limits assumed): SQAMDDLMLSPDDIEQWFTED
Description: 116 μl of a solution of the specific peptides (ranging from 1 to 100 μM) were prepared. […] 35 μl were then transferred in each well of the 384-well plate. Measurements were performed in triplicates.
Data was acquired on a ClarioStar Plus platereader. Endpoint measurement with 200 flashes per well were performed. An excitation filter with 482 nm wavelength and emission filter with 530 nm were used and gain adjustment as well as focal height adjustment were performed for each measurement. Fluorescence intensity, parallel fluorescence polarization and perpendicular fluorescence polarization were recorded.
Data analysis was performed using MARS Version 3.4 (BMG), Microsoft Excel and GraphPad Prism Version 8.

[6] = tested on: normal wildtype colon organoids; assay: Normal wildtype colon organoids, with or without APC depletion; type: cell-based
Description: as §1

GBM8 glioblastoma cells [7] = assay: Caspase-3/7 activation (apoptosis) in GBM8 glioblastoma cells; type: cell-based
Description: as §5, §3, §4

## RKKASSKIEAAILDAFSQNWRRKRPPRRRQRRKKRG (listed as Homo sapiens) [CL04124]
[1]
  cell viability, sensitivity of organoids with colorectal cancer associated mutations: sensitizes to FOXO4-based peptides, dependent on p53

## RKKASSKIAAAILDAFSQNAWANRRSSCKRPPPRRRQRRKKRA (listed as Homo sapiens) [SEQ ID NO: 23]
[2]
  stability in solution: improved stability in solution

## RKKASSKIAAAILDAFSQNWRRKR (listed as Homo sapiens) [CL04088]
IMR90 lung fibroblasts
  apoptosis induction by Caspase-3/7 activation, senescent vs healthy control cells: superior to peptide CL04022

## RKKASSKIAAAILDAFSQNGWANRRSSCKRP (listed as Homo sapiens) [CL04009]
3D colon organoids; 14 d after exposure
  tumor outgrowth of organoids: no more tumor outgrowth
3D colon organoids; colon organoids
  cytotoxic vs cytostatic effect: cytotoxic on colon organoids and not just cytostatic
MCF10 cells
  apoptosis induction (caspase assay), potency: more potent in inducing apoptosis
full-length TP53
  pull-down of endogenous TP53 (binding to full-length TP53): potent in binding recombinant TP53-TAD2 and full-length TP53
IMR90 lung fibroblasts
  apoptosis induction by Caspase-3/7 activation, senescent vs healthy control cells: superior selectivity to induce apoptosis by Caspase-3/7 activation in senescent, but not healthy control IMR90 lung fibroblasts; also recorded: very potent and selective capacity to induce apoptosis in senescent
IMR90 lung fibroblasts; IMR90, compared with FOXO4-DRI
  effective concentration (potency): effective at a lower concentration

## AKIEAAILDAFSQNBRKRRRRQRRKKRG [CL05114]
[2]
  stability in solution: superior stability

## RKKASSKIAAAILDAFSQNAWANRRSSCKRP (listed as Homo sapiens) [CL04022]
[2]; dissolved in H2O, room temperature, multiple days
  stability, peptide concentration over time: more stable than CL04009
[2]; in solution
  stability in solution: improved stability in solution
[3]; after 5′FluoroUracil or Oxaliplatin
  efficacy in organoids that survived chemotherapy: more effective
[3]
  cell death vs cell cycle arrest: induces cell death, not merely causes a cell cycle arrest
WI38 cells
  apoptosis induction: not in healthy Wi38 cells
Caspase-3/7 activation
  full Caspase-3/7 activation complete: 60 h
  start of Caspase-3/7 activation after administration: 24 h
[4]; one Microsatellite stable (MSS) line
  efficacy against organoid cultures: ineffective
[4]; patient-derived samples
  selectivity, patient-derived colorectal cancers vs healthy control samples: selective
[4]; two microsatellite-unstable (MSI) lines
  efficacy against organoid cultures: effective
GBM8 glioblastoma cells [5]
  loss of LDH (cell death), potency: more potent than FOXO4-DRI
TP53-TAD2
  binding of TP53-TAD by fluorescence polarization: more potent in binding TP53-TAD than the reference compound
[6]; normal wildtype colon organoids
  potency against organoids: less potency
[6]; organoids depleted for APC
  efficacy against organoids: effective
GBM8 glioblastoma cells [7]; GBM8, vs FOXO4-DRI
  Caspase3/-7 activation (apoptosis), potency: more potent than FOXO4-DRI
GBM8 glioblastoma cells [7]; GBM8 glioblastoma cells, FIG. 9C
  apoptosis induction: induce apoptosis in GBM8 glioblastoma cells
IMR90 lung fibroblasts
  apoptosis induction by Caspase-3/7 activation, senescent vs healthy control cells: still better than the control

## O=c1[nH]cc(F)c(=O)[nH]1 [SFU, 5-fluorouracil, reference compound]
[3]
  cell death vs cell cycle arrest: merely causes a cell cycle arrest
